Patent US20100331305A1, “OXO-HETEROCYCLE FUSED PYRIMIDINE COMPOUNDS, COMPOSITIONS AND METHODS OF USE” (Genentech, Inc., priority 2009, published 2010)

Tests used:
[1] = test system: AKT serine-473 phosphorylation in PC-3 cells; test: In vitro phospho-AKT serine 473 cellular assay; format: cell-based; conditions: Homo sapiens; PC-3 cells stimulated with EGF; first nine specific compounds; read-out: EC50 activity level, inhibition of AKT serine-473 phosphorylation
Description: b. In Vitro Phospho-AKT Serine 473 Cellular Assay
The assay measures a test compound's inhibition of AKT serine-473 phosphorylation in human prostate adenocarcinoma derived PC-3 (ATCC CRL-1435) cells that have been stimulated with epidermal growth factor (EGF).
The PC-3 cell line is maintained in RPMI1640 media supplemented with 10% FBS, 2 mM Glutamine, and 10 mM HEPES pH 7.4 at 37° C. in a 5% CO2 humidified incubator.
Cells are seeded in 384-well plates at 7,000 cells/well in 50 μl growth media. After 24 hours, growth media is removed and replaced with RPMI1640 containing no FBS. Cells are treated with 10 concentrations of test compounds or DMSO alone for controls (final DMSO concentration 0.5%) and incubated at 37° C. for 30 minutes. Cells are then stimulated for 10 minutes with 100 ng/ml EGF (final concentration). One column of controls is not stimulated with EGF to observe the signal ratio between stimulated and non-stimulated cells. After 10 minutes, compounds and stimulation media are removed and replaced with 25 μl lysis buffer containing protease inhibitors and phosphatase inhibitors. This buffer contains detergent to bring about cellular disruption. […] Following the transfer of lysate to the MSD plate, AKT in the lysate is captured on the coated antibody by incubation on a shaker at 4° C. for 16 hours. Following the capture step the plate is washed and then incubated for two hours with an antibody to S473 phosphorylated AKT which is conjugated with a Sulfo-Tag. This tag gives a signal when in proximity to the electrode on the base of the MSD plate. Binding the tagged antibody to the captured protein allow detection on a MSD reader.
EC50 values are calculated using MDL Assay Explorer 3.0.1.8 fitting a sigmoidal curve with a variable slope.

PC3 cells = test: In vitro cell proliferation assay; format: cell-based, human; conditions: Homo sapiens, PC-3, with PC3 cells; values tied to compounds by order of Table 1
In short: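 PC3 (or MDAMB361.1) cells, ~10^3/well, settled overnight, then exposed to compound for 3 days; viability read by CellTiter-Glo luminescence (RLU). Alternatively, 4-day compound exposure followed by Alamar Blue for 6 h, fluorescence 544/590 nm; EC50 from sigmoidal dose-response fit.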

[2] = biological target: mTOR enzyme (mTOR(1360-2549)+GBL) (Homo sapiens, UniProt P42345); test: In vitro mTOR kinase assay (TR-FRET); format: biochemical; conditions: 0.25 nM mTOR+GBL, 8 uM ATP; values tied to compounds by order of Table 1; 'x or y' = two alternative values for separated diastereomers of unassigned stereochemistry; read-out: activity level (Ki) in the mTOR kinase assay
In short: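 Compounds were tested in 10-point dose curves from 10 uM top final concentration. The reaction was stopped with 2 nM Tb-anti-p4E-BP1 (T37/T46) antibody plus 10 mM EDTA for 30 minutes, and phospho-4E-BP1 was detected by TR-FRET. Ki apparent was fitted with the Morrison ATP-competitive tight-binding equation.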

Sequence of mTOR enzyme (mTOR(1360-2549)+GBL) (P42345 1360-2549, species assumed): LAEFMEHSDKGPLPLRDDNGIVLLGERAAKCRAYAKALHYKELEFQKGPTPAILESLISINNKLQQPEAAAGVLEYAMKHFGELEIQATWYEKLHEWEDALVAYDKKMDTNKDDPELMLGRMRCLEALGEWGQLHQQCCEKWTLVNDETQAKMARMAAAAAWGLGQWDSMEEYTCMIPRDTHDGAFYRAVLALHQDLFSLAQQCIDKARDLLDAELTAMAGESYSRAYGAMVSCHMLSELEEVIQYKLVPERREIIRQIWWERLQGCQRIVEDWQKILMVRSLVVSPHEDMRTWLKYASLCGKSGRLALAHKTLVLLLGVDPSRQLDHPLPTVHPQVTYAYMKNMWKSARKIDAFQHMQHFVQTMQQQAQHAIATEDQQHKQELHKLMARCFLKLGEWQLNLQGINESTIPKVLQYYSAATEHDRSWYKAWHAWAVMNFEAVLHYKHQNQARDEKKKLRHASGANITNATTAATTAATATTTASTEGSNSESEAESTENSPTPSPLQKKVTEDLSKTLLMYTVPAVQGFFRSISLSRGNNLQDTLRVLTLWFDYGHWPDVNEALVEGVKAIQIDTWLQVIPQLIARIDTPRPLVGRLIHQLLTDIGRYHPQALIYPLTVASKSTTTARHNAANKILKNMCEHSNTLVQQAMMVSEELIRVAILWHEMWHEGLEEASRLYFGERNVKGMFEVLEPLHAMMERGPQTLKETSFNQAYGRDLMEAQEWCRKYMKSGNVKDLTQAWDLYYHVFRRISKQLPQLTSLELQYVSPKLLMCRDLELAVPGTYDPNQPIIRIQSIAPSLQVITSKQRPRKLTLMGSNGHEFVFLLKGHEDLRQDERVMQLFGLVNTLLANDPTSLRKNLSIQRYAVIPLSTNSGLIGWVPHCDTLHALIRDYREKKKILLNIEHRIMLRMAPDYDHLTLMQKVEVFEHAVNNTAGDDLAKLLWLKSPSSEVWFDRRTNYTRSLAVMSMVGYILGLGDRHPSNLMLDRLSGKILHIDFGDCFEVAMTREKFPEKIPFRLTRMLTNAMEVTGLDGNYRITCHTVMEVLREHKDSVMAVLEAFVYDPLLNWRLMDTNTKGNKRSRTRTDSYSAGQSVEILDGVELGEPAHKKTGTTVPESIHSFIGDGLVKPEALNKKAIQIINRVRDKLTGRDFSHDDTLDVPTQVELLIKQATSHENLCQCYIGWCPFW
Sequence of mTOR enzyme (mTOR(1360-2549)+GBL) (Q9BVC4 whole entry partner, species assumed): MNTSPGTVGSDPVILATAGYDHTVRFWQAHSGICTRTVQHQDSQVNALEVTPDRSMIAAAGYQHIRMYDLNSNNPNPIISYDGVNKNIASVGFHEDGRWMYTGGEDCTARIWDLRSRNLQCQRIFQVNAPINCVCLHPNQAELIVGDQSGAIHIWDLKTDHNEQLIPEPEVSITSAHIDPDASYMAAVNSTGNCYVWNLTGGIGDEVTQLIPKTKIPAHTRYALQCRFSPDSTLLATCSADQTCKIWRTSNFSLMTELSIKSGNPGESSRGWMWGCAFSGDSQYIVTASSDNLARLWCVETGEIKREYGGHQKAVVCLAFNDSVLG

SMILES	EC50 [1]	EC50 (PC3 cells)	Ki [2]
CCNC(=O)Nc1ccc(-c2nc3c(c(N4CCOCC4)n2)CCCO3)cc1 [Example 15, 1-ethyl-3-(4-(4-morpholino-6,7-dihydro-5H-pyrano[2,3-d]pyrimidin-2-yl)phenyl)urea]	85 nM	194 nM	
CCNC(=O)Nc1ccc(-c2nc3c(c(N4CCOC[C@@H]4C)n2)CCCO3)cc1 [Example 16, (S)-1-ethyl-3-(4-(4-(3-methylmorpholino)-6,7-dihydro-5H-pyrano[2,3-d]pyrimidin-2-yl)phenyl)urea]	10 nM	231 nM	2 nM
CCNC(=O)Nc1ccc(-c2nc3c(c(N4CCOC[C@@H]4C)n2)COCC3)cc1 [Example 17, (S)-1-ethyl-3-(4-(4-(3-methylmorpholino)-7,8-dihydro-5H-pyrano[4,3-d]pyrimidin-2-yl)phenyl)urea]	22 nM	175 nM	4 nM
CCNC(=O)Nc1ccc(-c2nc3c(c(N4CCOC[C@@H]4CC)n2)COCC3)cc1 [Example 19, (S)-1-ethyl-3-(4-(4-(3-ethylmorpholino)-7,8-dihydro-5H-pyrano[4,3-d]pyrimidin-2-yl)phenyl)urea]	6 nM	88 nM	1 nM
C[C@H]1COCCN1c1nc(-c2ccc(NC(=O)Nc3ccon3)cc2)nc2c1COCC2 [Example 20, (S)-1-(isoxazol-3-yl)-3-(4-(4-(3-methylmorpholino)-7,8-dihydro-5H-pyrano[4,3-d]pyrimidin-2-yl)phenyl)urea]	15 nM	94 nM	2 nM
C[C@H]1COCCN1c1nc(-c2ccc(NC(=O)Nc3ccn(C)n3)cc2)nc2c1COCC2 [Example 21, (S)-1-(1-methyl-1H-pyrazol-3-yl)-3-(4-(4-(3-methylmorpholino)-7,8-dihydro-5H-pyrano[4,3-d]pyrimidin-2-yl)phenyl)urea]	108 nM	189 nM	3 nM
C[C@H]1COCCN1c1nc(-c2ccc(NC(=O)Nc3cnn(C)c3)cc2)nc2c1COCC2 [Example 22, (S)-1-(1-methyl-1H-pyrazol-4-yl)-3-(4-(4-(3-methylmorpholino)-7,8-dihydro-5H-pyrano[4,3-d]pyrimidin-2-yl)phenyl)urea]	42 nM	59 nM	4 nM
C[C@H]1COCCN1c1nc(-c2ccc(NC(=O)NCC(F)(F)F)cc2)nc2c1COCC2 [Example 23, (S)-1-(4-(4-(3-methylmorpholino)-7,8-dihydro-5H-pyrano[4,3-d]pyrimidin-2-yl)phenyl)-3-(2,2,2-trifluoroethyl)urea]	49 nM	993 nM	16 nM
